Assay results reported in publication PMC8398766, “Do Small Molecules Activate the TrkB Receptor in the Same Manner as BDNF? Limitations of Published TrkB Low Molecular Agonists and Screening for Novel TrkB Orthosteric Agonists” (Pharmaceuticals, 2021).

Assays:
Assay in all cases: BioPrint Profile Panel
Assay type in all cases: biochemical
[1] = biological target: T1, Abl kinase (Homo sapiens, UniProt P00519); details: read-out: % of specific inhibition
T1 construct: purchased Eurofins Discovery (Cerep) BioPrint Profile Panel
From the text: (§1) The BioPrint® Profile Panel service offered by Eurofins Discovery (Poitiers, France) was chosen to perform selectivity analysis.

[2] = biological target: T2, PDE5 (Homo sapiens, UniProt O76074); details: Non-Kinase Enzyme, read-out: % of specific inhibition
T2 construct: purchased Eurofins Discovery (Cerep) BioPrint Profile Panel
From the text: as §1

[3] = biological target: T3, PDE4D2 (Homo sapiens, UniProt Q08499); details: Non-Kinase Enzyme, read-out: % of specific inhibition
T3 construct: purchased Eurofins Discovery (Cerep) BioPrint Profile Panel
From the text: as §1

[4] = biological target: PDE2A1 (Homo sapiens, UniProt O00408); details: Non-Kinase Enzyme, read-out: % of specific inhibition
From the text: as §1

[5] = biological target: T4, COX2 (Homo sapiens, UniProt P35354); details: Non-Kinase Enzyme
T4 construct: purchased Eurofins Discovery (Cerep) BioPrint Profile Panel
From the text: as §1

[6] = biological target: T5, ACE-2 (Homo sapiens, UniProt Q9BYF1); details: Non-Kinase Enzyme, read-out: % of specific inhibition
T5 construct: purchased Eurofins Discovery (Cerep) BioPrint Profile Panel
From the text: as §1

[7] = system: HIV-1 protease; details: 10 μM; Non-Kinase Enzyme
From the text: as §1

[8] = biological target: T6, ZAP70 kinase (Homo sapiens, UniProt P43403); details: read-out: % of specific inhibition
T6 construct: purchased Eurofins Discovery (Cerep) BioPrint Profile Panel
From the text: as §1

[9] = biological target: T7, Xanthine oxidase/ superoxide O2-scavenging (Bos taurus, UniProt P80457); details: Non-Kinase Enzyme
T7 construct: purchased Eurofins Discovery (Cerep) BioPrint Profile Panel
From the text: as §1

[10] = biological target: T8, COX1 (Homo sapiens, UniProt P23219); details: Non-Kinase Enzyme, read-out: % of specific inhibition
T8 construct: purchased Eurofins Discovery (Cerep) BioPrint Profile Panel
From the text: as §1

[11] = biological target: T9, MMP-2 (Homo sapiens, UniProt P08253); details: Non-Kinase Enzyme
T9 construct: purchased Eurofins Discovery (Cerep) BioPrint Profile Panel
From the text: as §1

[12] = biological target: T10, ERK2 (Homo sapiens, UniProt P28482); details: Kinase, read-out: % of specific inhibition
T10 construct: purchased Eurofins Discovery (Cerep) BioPrint Profile Panel
From the text: as §1

[13] = biological target: T11, p38α kinase (Homo sapiens, UniProt Q16539); details: read-out: % of specific inhibition
T11 construct: purchased Eurofins Discovery (Cerep) BioPrint Profile Panel
From the text: as §1

[14] = system: inducible NOS; details: 10 μM; Non-Kinase Enzyme
From the text: as §1

[15] = biological target: T12, MMP-1 (Homo sapiens, UniProt P03956); details: Non-Kinase Enzyme, read-out: % of specific inhibition
T12 construct: purchased Eurofins Discovery (Cerep) BioPrint Profile Panel
From the text: as §1

[16] = biological target: T13, Lyn A kinase (Homo sapiens, UniProt P07948)
T13 construct: purchased Eurofins Discovery (Cerep) BioPrint Profile Panel
From the text: as §1

[17] = biological target: T14, CDK2 (Homo sapiens, UniProt P24941); details: Kinase, read-out: % of specific inhibition
T14 construct: purchased Eurofins Discovery (Cerep) BioPrint Profile Panel
From the text: as §1

[18] = biological target: T15, BACE-1 (Homo sapiens, UniProt P56817); details: Non-Kinase Enzyme, read-out: % of specific inhibition
T15 construct: purchased Eurofins Discovery (Cerep) BioPrint Profile Panel
From the text: as §1

[19] = biological target: T16, PDE3B (Homo sapiens, UniProt Q13370); details: Non-Kinase Enzyme, read-out: % of specific inhibition
T16 construct: purchased Eurofins Discovery (Cerep) BioPrint Profile Panel
From the text: as §1

[20] = biological target: T17, ACE (Homo sapiens, UniProt P12821); details: Non-Kinase Enzyme, read-out: % of specific inhibition
T17 construct: purchased Eurofins Discovery (Cerep) BioPrint Profile Panel
From the text: as §1

[21] = biological target: T18, CaMK2α (Homo sapiens, UniProt Q9UQM7); details: Kinase, read-out: % of specific inhibition
T18 construct: purchased Eurofins Discovery (Cerep) BioPrint Profile Panel
From the text: as §1

[22] = biological target: T19, Fyn kinase (Homo sapiens, UniProt P06241); details: read-out: % of specific inhibition
T19 construct: purchased Eurofins Discovery (Cerep) BioPrint Profile Panel
From the text: as §1

[23] = biological target: T20, MMP-9 (Homo sapiens, UniProt P14780); details: Non-Kinase Enzyme, read-out: % Inhibition of Control Specific Binding
T20 construct: purchased Eurofins Discovery (Cerep) BioPrint Profile Panel
From the text: as §1

[24] = biological target: T21, caspase-3 (Homo sapiens, UniProt P42574); details: Non-Kinase Enzyme, read-out: % of specific inhibition
T21 construct: purchased Eurofins Discovery (Cerep) BioPrint Profile Panel
From the text: as §1

[25] = system: ATPase (Na+/K+); details: 10 μM; Non-Kinase Enzyme
From the text: as §1

[26] = system: Guanylyl cyclase; details: 10 μM; Activator effect
From the text: as §1

[27] = read-out: % Inhibition of Control Specific Binding

T9 sequence (P08253 110-660): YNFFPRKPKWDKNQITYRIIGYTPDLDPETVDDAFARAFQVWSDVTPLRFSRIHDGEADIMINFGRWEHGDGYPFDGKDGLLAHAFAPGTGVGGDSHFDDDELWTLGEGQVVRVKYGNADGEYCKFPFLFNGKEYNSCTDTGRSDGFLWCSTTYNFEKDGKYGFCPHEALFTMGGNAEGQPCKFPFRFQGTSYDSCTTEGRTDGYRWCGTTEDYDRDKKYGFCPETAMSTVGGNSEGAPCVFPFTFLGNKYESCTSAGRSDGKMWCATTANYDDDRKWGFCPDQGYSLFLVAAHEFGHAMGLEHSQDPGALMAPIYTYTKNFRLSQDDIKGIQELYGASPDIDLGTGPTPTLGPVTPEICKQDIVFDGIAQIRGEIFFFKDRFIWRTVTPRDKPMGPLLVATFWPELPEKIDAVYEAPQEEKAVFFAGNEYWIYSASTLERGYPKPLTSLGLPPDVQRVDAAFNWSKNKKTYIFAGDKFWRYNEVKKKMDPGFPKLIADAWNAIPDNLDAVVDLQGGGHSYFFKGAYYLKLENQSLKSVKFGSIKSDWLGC
T7 sequence (P80457 whole entry): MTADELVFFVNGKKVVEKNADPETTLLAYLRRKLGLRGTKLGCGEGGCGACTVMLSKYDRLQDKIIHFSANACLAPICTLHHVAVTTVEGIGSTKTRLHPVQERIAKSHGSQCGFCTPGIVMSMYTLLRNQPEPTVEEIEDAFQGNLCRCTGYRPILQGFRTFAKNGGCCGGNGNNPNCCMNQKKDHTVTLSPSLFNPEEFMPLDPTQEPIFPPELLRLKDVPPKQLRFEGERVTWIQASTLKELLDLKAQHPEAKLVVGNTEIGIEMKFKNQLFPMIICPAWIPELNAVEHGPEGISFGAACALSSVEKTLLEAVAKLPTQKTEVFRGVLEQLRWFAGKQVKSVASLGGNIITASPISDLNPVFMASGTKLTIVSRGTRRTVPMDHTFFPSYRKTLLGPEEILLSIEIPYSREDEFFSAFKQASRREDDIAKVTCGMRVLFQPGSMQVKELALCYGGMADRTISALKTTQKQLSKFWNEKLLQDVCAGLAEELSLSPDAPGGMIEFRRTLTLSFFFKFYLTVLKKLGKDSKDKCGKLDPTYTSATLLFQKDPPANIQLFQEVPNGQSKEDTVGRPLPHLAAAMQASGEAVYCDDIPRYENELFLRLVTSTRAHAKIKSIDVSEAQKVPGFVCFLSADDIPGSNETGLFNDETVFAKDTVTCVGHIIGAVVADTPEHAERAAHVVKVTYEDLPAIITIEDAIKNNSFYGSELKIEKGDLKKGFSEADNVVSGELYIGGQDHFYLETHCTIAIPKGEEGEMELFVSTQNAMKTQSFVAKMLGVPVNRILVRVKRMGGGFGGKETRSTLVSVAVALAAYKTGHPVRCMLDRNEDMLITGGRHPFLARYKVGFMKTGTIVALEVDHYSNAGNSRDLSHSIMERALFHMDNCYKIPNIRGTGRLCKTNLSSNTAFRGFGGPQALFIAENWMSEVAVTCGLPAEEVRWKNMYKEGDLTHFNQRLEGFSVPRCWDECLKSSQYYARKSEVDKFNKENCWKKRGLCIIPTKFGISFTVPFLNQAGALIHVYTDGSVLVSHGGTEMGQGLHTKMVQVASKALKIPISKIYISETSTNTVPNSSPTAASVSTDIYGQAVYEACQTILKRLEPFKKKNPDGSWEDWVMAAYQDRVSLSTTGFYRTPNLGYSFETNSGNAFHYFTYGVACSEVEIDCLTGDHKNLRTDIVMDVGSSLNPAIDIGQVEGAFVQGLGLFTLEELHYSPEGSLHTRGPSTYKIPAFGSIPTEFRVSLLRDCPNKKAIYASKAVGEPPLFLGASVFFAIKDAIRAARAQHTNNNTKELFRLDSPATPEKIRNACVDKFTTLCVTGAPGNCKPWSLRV
T4 sequence (P35354 18-604): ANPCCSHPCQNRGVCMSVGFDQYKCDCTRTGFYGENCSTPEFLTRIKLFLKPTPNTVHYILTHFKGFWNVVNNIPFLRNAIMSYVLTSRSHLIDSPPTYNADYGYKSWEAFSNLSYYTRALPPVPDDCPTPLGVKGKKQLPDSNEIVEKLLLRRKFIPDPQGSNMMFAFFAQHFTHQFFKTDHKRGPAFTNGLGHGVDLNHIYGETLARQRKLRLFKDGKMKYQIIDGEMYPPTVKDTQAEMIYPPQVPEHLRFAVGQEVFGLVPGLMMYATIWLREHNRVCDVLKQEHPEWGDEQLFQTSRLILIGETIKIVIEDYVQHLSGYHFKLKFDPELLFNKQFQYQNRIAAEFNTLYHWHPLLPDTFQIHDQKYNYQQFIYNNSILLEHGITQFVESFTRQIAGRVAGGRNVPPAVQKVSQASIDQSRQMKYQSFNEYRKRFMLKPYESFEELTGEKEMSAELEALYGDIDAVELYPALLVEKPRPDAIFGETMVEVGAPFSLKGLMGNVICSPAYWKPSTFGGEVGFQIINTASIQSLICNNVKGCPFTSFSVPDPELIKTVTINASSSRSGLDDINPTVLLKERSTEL
T13 sequence (P07948 whole entry): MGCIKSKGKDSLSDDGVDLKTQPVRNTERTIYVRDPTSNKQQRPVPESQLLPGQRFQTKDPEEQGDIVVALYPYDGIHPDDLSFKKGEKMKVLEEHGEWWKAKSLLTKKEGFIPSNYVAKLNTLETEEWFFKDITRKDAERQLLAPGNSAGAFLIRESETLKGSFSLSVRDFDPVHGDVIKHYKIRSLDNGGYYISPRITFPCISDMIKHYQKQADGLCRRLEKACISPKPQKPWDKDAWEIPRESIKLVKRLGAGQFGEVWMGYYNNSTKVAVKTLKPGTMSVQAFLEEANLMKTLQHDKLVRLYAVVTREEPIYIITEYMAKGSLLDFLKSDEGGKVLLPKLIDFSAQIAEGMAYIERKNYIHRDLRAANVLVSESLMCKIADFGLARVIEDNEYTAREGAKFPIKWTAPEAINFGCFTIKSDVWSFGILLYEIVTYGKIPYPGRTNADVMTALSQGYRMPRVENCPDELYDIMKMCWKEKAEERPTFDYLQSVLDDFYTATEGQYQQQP
PDE2A1, sequence (O00408 49-941 limits assumed): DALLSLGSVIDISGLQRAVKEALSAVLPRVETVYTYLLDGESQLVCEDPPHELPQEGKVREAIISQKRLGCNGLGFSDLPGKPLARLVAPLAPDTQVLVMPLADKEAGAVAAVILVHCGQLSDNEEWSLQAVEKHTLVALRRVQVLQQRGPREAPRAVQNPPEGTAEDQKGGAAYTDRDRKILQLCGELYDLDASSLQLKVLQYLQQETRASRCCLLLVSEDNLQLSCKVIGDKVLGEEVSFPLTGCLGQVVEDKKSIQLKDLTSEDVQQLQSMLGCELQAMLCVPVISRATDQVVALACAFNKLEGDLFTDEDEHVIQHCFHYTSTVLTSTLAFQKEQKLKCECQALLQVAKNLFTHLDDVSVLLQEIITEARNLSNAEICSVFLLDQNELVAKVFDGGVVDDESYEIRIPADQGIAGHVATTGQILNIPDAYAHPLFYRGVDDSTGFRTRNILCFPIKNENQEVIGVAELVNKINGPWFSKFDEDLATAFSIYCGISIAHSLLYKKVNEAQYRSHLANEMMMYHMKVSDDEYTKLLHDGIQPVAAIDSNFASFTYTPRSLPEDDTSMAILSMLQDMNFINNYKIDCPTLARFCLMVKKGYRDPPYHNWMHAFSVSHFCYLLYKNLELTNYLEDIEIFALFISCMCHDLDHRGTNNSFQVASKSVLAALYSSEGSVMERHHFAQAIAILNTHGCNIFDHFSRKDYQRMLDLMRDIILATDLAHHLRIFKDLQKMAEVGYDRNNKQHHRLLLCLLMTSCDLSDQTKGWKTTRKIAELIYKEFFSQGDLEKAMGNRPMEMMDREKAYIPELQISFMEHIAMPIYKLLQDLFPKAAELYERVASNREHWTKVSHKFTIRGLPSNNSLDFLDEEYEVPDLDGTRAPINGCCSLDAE
T15 sequence (P56817 46-501): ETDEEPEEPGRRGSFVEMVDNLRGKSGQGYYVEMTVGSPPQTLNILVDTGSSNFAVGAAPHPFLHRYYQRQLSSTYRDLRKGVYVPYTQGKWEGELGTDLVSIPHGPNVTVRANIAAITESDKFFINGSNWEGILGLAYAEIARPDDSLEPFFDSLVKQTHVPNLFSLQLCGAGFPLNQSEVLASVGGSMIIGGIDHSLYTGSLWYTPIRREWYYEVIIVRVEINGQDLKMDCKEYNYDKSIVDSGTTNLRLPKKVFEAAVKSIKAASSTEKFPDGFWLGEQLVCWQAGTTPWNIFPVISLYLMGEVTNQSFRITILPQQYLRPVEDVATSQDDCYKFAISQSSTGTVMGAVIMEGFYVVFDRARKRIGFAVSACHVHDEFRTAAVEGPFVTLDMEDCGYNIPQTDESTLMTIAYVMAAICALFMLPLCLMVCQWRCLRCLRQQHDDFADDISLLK
T18 sequence (Q9UQM7 whole entry): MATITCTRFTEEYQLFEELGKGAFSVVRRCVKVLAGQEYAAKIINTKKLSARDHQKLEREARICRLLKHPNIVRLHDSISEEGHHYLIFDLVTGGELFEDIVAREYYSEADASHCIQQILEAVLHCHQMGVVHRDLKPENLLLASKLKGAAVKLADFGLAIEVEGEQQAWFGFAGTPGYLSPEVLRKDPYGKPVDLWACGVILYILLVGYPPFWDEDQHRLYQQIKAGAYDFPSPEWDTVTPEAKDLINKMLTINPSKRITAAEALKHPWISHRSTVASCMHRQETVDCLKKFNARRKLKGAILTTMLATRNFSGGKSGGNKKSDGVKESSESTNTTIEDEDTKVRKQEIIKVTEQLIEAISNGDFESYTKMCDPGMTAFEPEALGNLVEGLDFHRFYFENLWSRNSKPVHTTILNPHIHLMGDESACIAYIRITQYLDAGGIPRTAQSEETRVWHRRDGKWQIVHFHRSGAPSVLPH

O=c1cc(-c2ccccc2)oc2c(O)c(O)ccc12 [7,8-DHF, 7,8-dihydroxyflavone]
inhibition at 10 µM [1]: 25%
inhibition at 10 µM [2]: 48%
inhibition at 10 µM [3]: 38%
inhibition at 10 µM [4]: 5%
% Inhibition of Control Specific Binding ([5]; 10 μM): 81.6%
inhibition at 10 µM [5, 27]: 82%
inhibition at 10 µM [6]: -8%
% of specific inhibition [7]: 1%
inhibition at 10 µM [8]: 4%
% Inhibition of Control Specific Binding ([9]; 10 μM): 91.5%
inhibition at 10 µM [9, 27]: 92%
inhibition at 10 µM [10]: 49%
% Inhibition of Control Specific Binding ([11]; 10 μM): 56.5%
inhibition at 10 µM [11, 27]: 56%
inhibition at 10 µM [12]: -23%
inhibition at 10 µM [13]: -50%
% of specific inhibition [14]: 3%
inhibition at 10 µM [15]: 10%
% Inhibition of Control Specific Binding ([16]; 10 μM): 52.6%
inhibition at 10 µM [16, 27]: 53%
inhibition at 10 µM [17]: 0%
inhibition at 10 µM [18]: 15%
inhibition at 10 µM [19]: 11%
inhibition at 10 µM [20]: 5%
inhibition at 10 µM [21]: -20%
inhibition at 10 µM [22]: 21%
inhibition at 10 µM [23]: 72%
inhibition at 10 µM [24]: 1%
% of specific inhibition [25]: -2%
% of specific inhibition [26]: 2%
